Test [1] has as its target T1, Tyrosine-protein phosphatase non-receptor type 1 (Homo sapiens, UniProt P18031).
T1 sequence (P18031 whole entry): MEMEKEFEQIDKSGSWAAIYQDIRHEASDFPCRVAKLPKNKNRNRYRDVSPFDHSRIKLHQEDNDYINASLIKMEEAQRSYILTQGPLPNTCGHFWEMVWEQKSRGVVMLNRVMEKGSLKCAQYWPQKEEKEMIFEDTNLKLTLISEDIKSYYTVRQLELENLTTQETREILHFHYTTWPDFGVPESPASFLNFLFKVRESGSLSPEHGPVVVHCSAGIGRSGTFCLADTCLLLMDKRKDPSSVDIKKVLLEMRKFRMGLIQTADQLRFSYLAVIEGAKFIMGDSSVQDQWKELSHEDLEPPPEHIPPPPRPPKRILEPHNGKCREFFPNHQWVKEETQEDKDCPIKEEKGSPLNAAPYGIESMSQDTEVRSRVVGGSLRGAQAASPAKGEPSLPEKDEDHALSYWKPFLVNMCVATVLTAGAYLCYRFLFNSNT
Description: Inhibition of PTP1B (unknown origin).

In test [2] the target is T2, Tyrosine-protein phosphatase non-receptor type 1 (Homo sapiens) (UniProt P18031).
T2 sequence (whole entry): T1 sequence (P18031 whole entry)
The experiment in a line: Inhibition of PTP1B (unknown origin) at 24.2 uM.

The next test has as its system Jurkat. Description: Cytotoxicity against human Jurkat cells at 24.2 uM. Format: functional, cell-based.

pIC50: −log10 of the molar value. Activity calls are given as the source filed them. No cut-off for these calls is given here.

The compound `CC[C@]12CCCC(C)(C)[C@@H]1CC[C@]1(C)[C@@H]2C[C@@H](O)[C@]2(C)C3=C(CC[C@@H]12)[C@@H](C)OC3=O` had a pIC50 in test [1] of 5.13. The compound further yielded an inhibition in test [2] of 42%. Moreover, in the test on Jurkat, the inhibition entry was “inactive”.
Take `CC[C@@]1(C)CCC[C@]2(C)[C@H]3C[C@@H](O)[C@]4(C)C5=C(CC[C@H]4[C@]3(C)CC[C@@H]12)[C@H](C)OC5=O`: the inhibition result (in test [2]; in the test with Jurkat) was “inactive” in each case.
`CC[C@]12CCCC(C)(C)[C@@H]1CC[C@]1(C)[C@@H]2C[C@@H](O)[C@]2(C)C3=C(CC[C@@H]12)[C@H](C)OC3=O`: the inhibition in test [2] stood at 42%. The inhibition result in the test with Jurkat was “inactive”.
Regarding `CC[C@@]1(C)CCC[C@]2(C)[C@H]3C[C@@H](O)[C@]4(C)C5=C(CC[C@H]4[C@]3(C)CC[C@@H]12)[C@@H](C)OC5=O`, the pIC50 in test [1] was 5.13. The inhibition entry (in test [2]; with Jurkat) was “inactive” each time.

As a reminder, the pIC50 is −log10 of the IC50, conventionally taken in molar units. As usually defined, the inhibition is the drop in the measured response relative to a control, in per cent.

These data come from ChEMBL document CHEMBL3392984, “Two new protein tyrosine phosphatase 1B inhibitors, hyattellactones A and B, from the Indonesian marine sponge Hyattella sp” (Bioorg Med Chem Lett, 2015).
